Laboratory results published in patent publication US20110104301A1, “METHODS OF REDUCING PAIN AND INFLAMMATION” (Georgetown University, A Congressionally Chartered …, priority 2008, published 2011).

Key:
TRPV1 [1] = molecular target: T1, TRPV1 (Mus musculus, UniProt Q704Y3); assay: Patch-clamp of capsaicin-sensitive sensory neurons (nodose ganglia); format: cell-based
T1 construct: endogenous in cells; host or cells: primary nodose ganglion neurons of adult C57Bl6/J mice
Description: (§1) HEK cell and sensory neuron electrophysiology. HEK 293F cells (Invitrogen) were cultured in DMEM supplemented with 1% non-essential amino acids and 10% fetal calf serum. Cell cultures were maintained at 37° C. with 5% CO2. Cells were transfected with rat TRPV 1 (gift of David Julius), and GFP cDNA using Lipofectamine™ Transfection Reagent (Invitrogen) and used 24-48 h after transfection. Nodose ganglia were obtained from adult mice (C57B16/J and TRPV1-null), cut, digested with collagenase, and cultured in Neurobasal +2% B-27 medium (Invitrogen), 0.1% L-glutamine and 1% penicillin/streptomycin on poly-D lysine-coated glass coverslips at 37° C. in 5% CO2. Neurons were used within 24-36 hr of culture. Whole-cell and single-channel patch clamp recordings were performed using an EPC8 amplifier (HEKA). The current signal was low-pass filtered at 1-3 kHz and sampled at 4 kHz. Currents were further filtered for display purposes. For whole-cell and excised patch recordings the bath solution contained (in mM): 140 NaCl, 4 KCl, 1 MgCl2, 1 EGTA, 10 HEPES, 10 glucose pH 7.3 (290 mOsm). The pipette solution contained (in mM): 140 CsC1, 10 NaCl, 10 HEPES, 5 EGTA, 2 Mg ATP and 0.03 GTP, pH 7.3. The peak amplitudes measured either during the prepulse or the tail current (within 1 ms) were plotted as a function of the test potential and normalized to the maximal current obtained from the following Boltzmann function: […]

TRPM8 = molecular target: T2, TRPM8 (Rattus norvegicus, UniProt Q8R455); assay: Whole-cell patch-clamp of TRPM8-expressing HEK293 cells; format: cell-based
T2 construct: expressed in transfected cells; host or cells: HEK 293F
Description: (§2) Electrophysiology. […] Whole-cell and single-channel patch-clamp recordings were performed by using an EPC8 amplifier (HEKA Electronics). For whole-cell and excised patch recordings the bath solution contained 140 mMNaCl, 4 mMKCl, 1 mMMgCl2, 1.2 mMCaCl2, 10 mMHepes, 10 mM glucose, pH 7.3. For cell-attached experiments, NaCl was replaced with KCl in the bath solution. […] For neuronal recording NaCl was replaced with K-gluconate (plus 1 mMATP, 0.2 mM GTP). Solutions were applied via a gravity-fed system. […] Voltage-dependent properties were measured as described in Matt and Ahern, J. Physiol. […] The baseline currents under control conditions were subtracted. For cell-attached experiments, peak amplitudes were measured from all-points histograms, and open probability was measured as NPo>750 ms. Defolliculated Xenopus laevis oocytes were injected with ≈10 ng of hTRPA1 (gift of Ardem Patapoutian, The Scripps Research Institute, La Jolla, Calif.).

TRPV1 [2] = molecular target: TRPV1 (Rattus norvegicus, UniProt O35433); assay: Whole-cell patch-clamp of TRPV1-expressing HEK293 cells; format: cell-based; set-up: expressed in transfected cells; host or cells: HEK 293F (Invitrogen), co-transfected with GFP cDNA
Description: as §2
as §1, with “HEK 293F cells (Invitrogen) were cultured in DMEM supplemented with 1% non-essential amino acids and 10% fetal calf serum.” left out

DRG neurons = assay: Ca2+ imaging in DRG neurons from wild-type mice; format: cell-based, mouse; details: 1.5 mM, 3 MAC
Description: (§3) Ca^2+ Imaging. Neurons were loaded with 1 μM Fluo4-AM (Molecular Probes) for 20 min and washed for a further 10-20 min before recording. The dye was excited at 488±15 nm. Emitted fluorescence was filtered with a 535±25 nm bandpass filter, captured by a SPOT RT digital camera (Diagnostic Instruments) and read into a computer. Analysis was performed offline by using Simple PCI software (Compix Inc.).

[3] = tested on: DRG neurons from TRPA1-null mice; assay: Ca2+ imaging in DRG neurons from TRPA1-null mice; format: cell-based, mouse; details: desflurane n=125, propofol n=120
Description: as §3

mTRPA1-dTM5 = assay: Current-voltage recordings of chimera mTRPA1-dTM5; format: cell-based
Description: A genetic approach was used to identify critical sites in TRPA1 and TRPV1 required for activation by general anesthetics. Drosophila TRPA1 is insensitive to desflurane (at concentrations up to 3 mM). […] Note that dTRPA1 is insensitive to AITC. Next, several chimeric TRP proteins containing dTRPA1 (unresponsive to desflurane) and mTRPA1 were tested. For the dTRPA1-mN chimera, the mouse 720 amino acid N-terminus was exchanged for the drosophila N-terminus. The N-terminal domain contains essential binding sites for AITC, and therefore studying this chimera tests an important role for the N-terminus in anesthetic-sensing. […] The mTRPA1-dTM5 construct was then studied, which is the mouse protein containing the fifth transmembrane domain of the drosophila protein.

[4] = isoflurane 0.9 mM, octanol 1 mM

Sequence of TRPV1 (Rattus norvegicus, UniProt O35433) (O35433 whole entry): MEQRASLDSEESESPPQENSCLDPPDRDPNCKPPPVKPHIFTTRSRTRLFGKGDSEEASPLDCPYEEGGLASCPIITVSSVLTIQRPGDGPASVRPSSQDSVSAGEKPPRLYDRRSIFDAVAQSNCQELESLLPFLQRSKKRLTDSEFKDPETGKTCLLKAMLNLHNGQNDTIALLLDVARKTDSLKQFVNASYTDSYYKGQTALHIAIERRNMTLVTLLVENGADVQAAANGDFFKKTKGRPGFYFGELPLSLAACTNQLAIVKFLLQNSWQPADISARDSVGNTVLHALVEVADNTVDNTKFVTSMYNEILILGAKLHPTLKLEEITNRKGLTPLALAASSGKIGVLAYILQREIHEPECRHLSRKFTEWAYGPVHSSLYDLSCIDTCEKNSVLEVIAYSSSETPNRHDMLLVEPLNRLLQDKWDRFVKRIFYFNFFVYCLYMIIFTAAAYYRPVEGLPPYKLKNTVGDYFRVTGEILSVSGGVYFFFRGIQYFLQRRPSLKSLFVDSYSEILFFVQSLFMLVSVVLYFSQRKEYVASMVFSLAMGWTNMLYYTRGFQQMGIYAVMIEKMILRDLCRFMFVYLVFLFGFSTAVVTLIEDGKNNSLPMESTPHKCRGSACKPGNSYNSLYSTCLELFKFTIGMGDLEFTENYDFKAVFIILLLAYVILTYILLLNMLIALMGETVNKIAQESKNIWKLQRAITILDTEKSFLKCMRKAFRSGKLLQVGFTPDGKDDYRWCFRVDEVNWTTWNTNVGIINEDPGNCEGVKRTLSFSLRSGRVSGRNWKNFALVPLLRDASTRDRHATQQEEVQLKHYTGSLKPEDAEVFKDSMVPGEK
T1 sequence (Q704Y3 whole entry): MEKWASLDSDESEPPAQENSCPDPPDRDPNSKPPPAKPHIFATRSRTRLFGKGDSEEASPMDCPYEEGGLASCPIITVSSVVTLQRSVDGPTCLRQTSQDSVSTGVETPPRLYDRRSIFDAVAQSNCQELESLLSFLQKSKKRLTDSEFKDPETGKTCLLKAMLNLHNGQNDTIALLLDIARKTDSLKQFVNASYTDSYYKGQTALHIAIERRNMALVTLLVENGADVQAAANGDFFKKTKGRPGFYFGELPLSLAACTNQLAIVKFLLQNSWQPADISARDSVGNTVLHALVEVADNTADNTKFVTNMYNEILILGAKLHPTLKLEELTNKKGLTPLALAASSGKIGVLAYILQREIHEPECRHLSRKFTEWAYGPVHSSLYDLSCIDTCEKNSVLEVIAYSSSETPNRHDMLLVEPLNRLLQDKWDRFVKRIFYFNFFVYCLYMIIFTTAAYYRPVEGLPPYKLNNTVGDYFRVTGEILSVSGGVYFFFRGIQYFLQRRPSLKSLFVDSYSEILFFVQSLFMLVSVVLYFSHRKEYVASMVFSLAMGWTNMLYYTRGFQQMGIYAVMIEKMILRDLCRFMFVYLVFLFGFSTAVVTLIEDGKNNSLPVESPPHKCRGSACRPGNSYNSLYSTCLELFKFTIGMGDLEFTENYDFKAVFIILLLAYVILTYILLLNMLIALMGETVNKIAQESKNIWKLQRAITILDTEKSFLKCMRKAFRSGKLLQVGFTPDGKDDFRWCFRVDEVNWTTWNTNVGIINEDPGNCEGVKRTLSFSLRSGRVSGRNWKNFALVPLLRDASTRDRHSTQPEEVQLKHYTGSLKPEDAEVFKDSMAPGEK
T2 sequence (Q8R455 whole entry): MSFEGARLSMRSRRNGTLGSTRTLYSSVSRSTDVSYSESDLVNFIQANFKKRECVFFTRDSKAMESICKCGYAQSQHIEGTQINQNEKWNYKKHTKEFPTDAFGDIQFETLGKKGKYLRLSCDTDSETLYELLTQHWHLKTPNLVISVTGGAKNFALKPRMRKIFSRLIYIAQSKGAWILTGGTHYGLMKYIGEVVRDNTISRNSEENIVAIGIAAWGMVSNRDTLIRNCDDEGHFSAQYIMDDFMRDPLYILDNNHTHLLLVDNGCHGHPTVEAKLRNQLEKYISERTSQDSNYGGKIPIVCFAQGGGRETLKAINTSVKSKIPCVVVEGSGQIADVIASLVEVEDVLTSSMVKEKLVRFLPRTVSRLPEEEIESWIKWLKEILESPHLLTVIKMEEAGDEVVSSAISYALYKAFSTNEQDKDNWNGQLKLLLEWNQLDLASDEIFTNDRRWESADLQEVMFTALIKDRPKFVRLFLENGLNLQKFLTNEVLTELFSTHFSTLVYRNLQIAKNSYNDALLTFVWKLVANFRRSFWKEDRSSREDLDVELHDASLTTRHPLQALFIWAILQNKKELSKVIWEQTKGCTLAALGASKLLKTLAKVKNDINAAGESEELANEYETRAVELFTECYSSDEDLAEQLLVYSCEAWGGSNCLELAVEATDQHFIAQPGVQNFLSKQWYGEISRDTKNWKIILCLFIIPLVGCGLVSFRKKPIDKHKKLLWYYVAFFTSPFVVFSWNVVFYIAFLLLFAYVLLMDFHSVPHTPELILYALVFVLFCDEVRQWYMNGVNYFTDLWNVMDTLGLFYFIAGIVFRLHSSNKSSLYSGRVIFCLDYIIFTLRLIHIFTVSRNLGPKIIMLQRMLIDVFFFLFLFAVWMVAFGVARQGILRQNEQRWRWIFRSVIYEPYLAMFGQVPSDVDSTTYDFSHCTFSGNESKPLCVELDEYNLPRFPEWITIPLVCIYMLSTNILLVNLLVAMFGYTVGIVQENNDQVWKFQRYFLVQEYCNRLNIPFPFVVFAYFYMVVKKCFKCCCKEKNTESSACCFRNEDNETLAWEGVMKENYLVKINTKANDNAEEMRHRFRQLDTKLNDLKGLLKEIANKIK

SMILES: FC(F)OC(Cl)C(F)(F)F (stereo not drawn) [isoflurane]
- Capsaicin-evoked single channel activity (TRPV1 [1]; cell-free outside-out patches, capsaicin 30 nM, isoflurane 0.9 mM): increased
- Single TRPV1 channel activity in neurons after PDBu treatment (TRPV1 [1]; isoflurane 0.9 mM): activated
- Response of sensory neurons under control conditions (TRPV1 [1]; isoflurane 0.9 mM, AITC-insensitive neurons): negligible responses
- Enhancement of capsaicin-evoked whole-cell currents (TRPV1 [1]; isoflurane 0.9 mM, capsaicin 30 nM, n=5): approximately 3 fold
- Response of sensory neurons after BK treatment (TRPV1 [1]; isoflurane 0.9 mM, n=7, P<0.01): marked increase in current
- Membrane excitability under current-clamp, co-application with BK (TRPV1 [1]; n=3): depolarized neurons and initiated sustained spike discharge
- Activation of TRPM8 currents (TRPM8; 0.9 mM (2.9 MAC)): failed to activate
- Effects at TRPM8 at holding potential −50 mV (TRPM8; [4]): negligible effects
- Activation of TRPV1 currents (TRPV1 [2]; 0.9 mM (2.9 MAC)): failed to activate
- Currents evoked after PDBu treatment in TRPV1-expressing HEK293 cells (TRPV1 [2]; VGA 0.9 mM, PDBu 500 nM, room temperature (25° C.)): activates currents
- Effect on TRPV1 when applied together with saturating octanol (TRPV1 [2]; isoflurane 0.9 mM + octanol 1.8 mM): negligible effects
- Enhancement of maximal voltage-evoked TRPV1 current (TRPV1 [2]; isoflurane 0.9 mM, n=5): 15±6%
- Reduction of TRPV1 V1/2 (TRPV1 [2]; isoflurane 0.9 mM, n=5): 23.0±6.2 mV
- Effects at TRPV1 at holding potential −50 mV (TRPV1 [2]; [4]): negligible effects
- V1/2 of TRPV1 voltage activation with isoflurane (Boltzmann fit) (TRPV1 [2]; isoflurane 0.9 mM, control 161.5±2.7 mV): 129.0±3.6 mV

SMILES: FC(F)OC(F)C(F)(F)F (stereo not drawn) [desflurane]
- Neurons with evoked Ca2+ increase (DRG neurons): 36 of 123
- Ca2+ responses in neurons from TRPA1-null mice [3]: no responses
- Sensitivity of mTRPA1-dTM5 chimera (mTRPA1-dTM5): abolished
